Consider two compounds from patent US9884866B2, “Immunomodulators and immunomodulator conjugates” (REGENTS OF THE UNIVERSITY OF MINNESOTA, priority 2014, dated 2018).

This assay relates to Bone marrow derived dendritic cells (BMDC). Nature of the assay: Measurement of proinflammatory cytokines with cytometric bead assay in BMDC. It counts as cell-based, C57BL/6 mice. To be noted: BMDC stimulated with 30 μM of compound for 3 days; supernatant. The protocol: Measurement of Proimflammatory Cytokines with Cytometric Bead Assay:
Bone marrow derived dendritic cells (BMDC) were generated by isolating a single cell suspension of marrow from the femur of C57BL/6 mice (6-8 weeks of age). Red blood cells were lysed with 0.83% NH4Cl, 0.1% KHCO3 and […] cells were seeded in each of well of a 6 well plate in complete RPMI media (Invitrogen, Grand Island, N.Y.), supplemented with mouse 20 ng/ml Granulocyte-Macrophage Colony Stimulating Factor (PeproTech, Rocky Hill, N.J.). After 6 days after culture, BMDC were stimulated with 30 μM of compound for 3 days. 25 μL of supernatant was then removed and assayed for TNFα, IL-12p40, IL-1β and IL-10 using a flow cytometric bead array according to the manufacturers' instructions (BD Bioscience, San Jose, Calif.). Controls were performed using the addition of media and carrier with no drug. Flow cytometry was performed on a FACS canto-II (BD Bioscience) and data were analyzed using Flowjo software (Tree Star, Inc. Ashland, Oreg.).

With `CCCCc1nc2c(N)nc3cc(NS(=O)(=O)c4ccccc4)ccc3c2n1CC(C)O` (centres unmarked) [Compound 543], the IL-1b stood at 128 ± 13 pg/mL, the IL-10 was determined as 151 ± 24 pg/mL, the IL-12/23p40 was 57 ± 8 pg/mL and the TNF worked out at 725 ± 77 pg/mL.

`CCCCc1nc2c(N)nc3cc(S(=O)(=O)c4ccccc4)ccc3c2n1CC(C)O` (centres unmarked) [Compound 548, 4-amino-2-butyl-1-(2-hydroxypropyl)-7-benzenesulphonyl-1H-imidazo[4,5-c]quinoline] returned an IL-1b of 19 ± 2 pg/mL, an IL-10 of 29 ± 2 pg/mL, an IL-12/23p40 of 176 ± 25 pg/mL and a TNF of 1456 ± 111 pg/mL.
